Common to all, as to experiment: MIC of clinical ocular isolates (Example 1)
What all share (format): cell-based

The test system of assay [1] is Ciprofloxacin Susceptible (CS) S. aureus (CSSA). To be noted: Staphylococcus aureus; CSSA clinical ocular isolates (n=27).
Assay [2] concerns Ciprofloxacin Resistant (CR) S. aureus (CRSA). To be noted: Staphylococcus aureus; CRSA clinical ocular isolates (n=28).
Assay [3] relates to CS S. epidermidis (CSSE). To be noted: Staphylococcus epidermidis; CSSE clinical ocular isolates (n=26).
For assay [4], the system named is CR S. epidermidis (CRSE). Particulars: Staphylococcus epidermidis; CRSE clinical ocular isolates (n=26).
For assay [5], the system named is St. pneumoniae (SP). Particulars: Streptococcus pneumoniae; SP clinical ocular isolates (n=27).
For assay [6], the system named is Moraxella Species (MS). To be noted: MS clinical ocular isolates (n=25).
For assay [7], the system named is H. influenzae (HI). Particulars: Haemophilus influenzae; HI clinical ocular isolates (n=26).
Assay [8] deals with P. aeruginosa (PA). Particulars: Pseudomonas aeruginosa; PA clinical ocular isolates (n=26).
In assay [9] the test system is Serratia marcescens (SM). To be noted: SM clinical ocular isolates (n=27).

Each structure is given as a SMILES string.

`N=C(N)NCCCCC(=O)Nc1cc(C(F)(F)F)cc(NC(=O)c2cc(C(=O)Nc3cc(C(F)(F)F)cc(NC(=O)CCCCNC(=N)N)c3SCCN)ncn2)c1SCCN` [Oligomer 2]: the MIC50 in assay [1] was found to be 0.125 µg/mL; in [2] it was 0.25 µg/mL; in [3], 0.03 µg/mL; in assay [4] it was 0.03 µg/mL; in assay [5] it was 1 µg/mL; in [6] it was 0.25 µg/mL. Besides, the MIC50 in assay [7] amounted to 8 µg/mL; in assay [8], 4 µg/mL; in assay [9] it was 16 µg/mL. The MIC90 in [1] worked out at 0.25 µg/mL; in assay [2] it was 0.25 µg/mL; in [3], 0.03 µg/mL; in assay [4], 0.03 µg/mL; in assay [5], 2 µg/mL; in assay [6], 0.5 µg/mL. The MIC90 in [7] came to 16 µg/mL; in [8], 8 µg/mL; in assay [9], 32 µg/mL.

The values above are taken from patent US20130065818A1, “Arylamide Compounds And Compositions And Uses Thereof” (POLYMEDIX, priority 2006, published 2013).
